Patent publication US10604473B2, “Lipids that increase insulin sensitivity and methods of using the same” (Beth Israel Deaconess Medical Center, Inc., priority 2013, dated 2020)

Experiments:
purified CEL = molecular target: T1, purified CEL (Homo sapiens, UniProt P19835); test: FAHFA hydrolysis by purified CEL; format: biochemical; conditions: micellar concentrations of NaTC
T1 construct: purchased R&D Systems
T1 sequence (P19835 21-753): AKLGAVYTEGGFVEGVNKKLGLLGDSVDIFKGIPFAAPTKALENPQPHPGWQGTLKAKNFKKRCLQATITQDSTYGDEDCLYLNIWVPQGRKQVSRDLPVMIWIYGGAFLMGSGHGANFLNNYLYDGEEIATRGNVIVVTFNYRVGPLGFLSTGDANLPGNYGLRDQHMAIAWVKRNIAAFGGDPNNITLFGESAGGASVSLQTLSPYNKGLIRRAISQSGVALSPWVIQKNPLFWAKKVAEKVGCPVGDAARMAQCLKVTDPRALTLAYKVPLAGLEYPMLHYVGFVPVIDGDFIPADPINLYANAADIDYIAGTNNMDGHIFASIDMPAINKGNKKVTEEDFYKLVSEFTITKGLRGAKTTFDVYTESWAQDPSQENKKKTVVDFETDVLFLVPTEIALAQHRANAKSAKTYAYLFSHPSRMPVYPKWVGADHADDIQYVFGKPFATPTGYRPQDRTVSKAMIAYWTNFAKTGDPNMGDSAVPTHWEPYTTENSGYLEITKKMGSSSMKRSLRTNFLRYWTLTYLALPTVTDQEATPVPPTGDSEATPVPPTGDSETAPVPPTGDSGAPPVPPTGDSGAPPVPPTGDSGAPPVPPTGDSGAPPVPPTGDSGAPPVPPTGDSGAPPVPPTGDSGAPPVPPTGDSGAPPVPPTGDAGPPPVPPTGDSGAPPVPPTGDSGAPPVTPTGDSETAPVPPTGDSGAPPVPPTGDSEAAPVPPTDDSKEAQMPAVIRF
Text: To confirm the identification of CEL as a FAHFA hydrolase, a small amount of purified enzyme (available commercially from R&D Systems) was used.

[1] = tested on: LPS-activated dendritic cells; test: LPS-induced activation of bone marrow-derived dendritic cells; format: cell-based, mouse
Method: Mouse bone marrow cells were flushed from the femurs and tibiae. The red blood cells were eliminated and the cells plated at a density of 1.0×10^6 cells/mL in RBMI complete medium containing 10% FCS plus 20 ng/ml GM-CSF. The medium was replaced on day 4, and the cells were harvested on day 6 to obtain immature DCs. To obtain mature DCs, LPS was added to the cultures at a final concentration of 100 ng/mL on day 6, and the cells were cultured for an additional 24 h, as previously described by Macia, L., et al. Impairment of dendritic cell functionality and steady-state number in obese mice. J Immunol 177, 5997-6006 (2006), which is incorporated by reference in its entirety. To test the anti-inflammatory effects of 9-PAHSA, immature BMDC were treated with 9-PAHSA in a dose response dependent manner in the presence of 100 ng/mL of LPS. The activation status of the BMDCs was evaluated by measuring the expression of MHCII and co-stimulatory molecules using Flow Cytometry and by the production of pro-inflammatory cytokines (IL-6, TNF, IL-12 and IL-1β) which was assessed by ELISA.
Mouse bone marrow cells were flushed from the femurs and tibiae. The red blood cells were lysed, and the cells were plated at a density of 0.5×10^6 cells/mL in RPMI 1640 Low medium (Gibco, USA) containing 10% FCS (Gibco, USA) and 20 ng/mL GM-CSF. […]
The immature dendritic cells obtained in the day 6 were maturated with LPS in the presence of different concentrations of 9-PAHSA varying between 100 ng/mL to 20 ug/mL. The cells were maturated for 24 h and the maturation status analyzed by cytokine production and co-stimulatory molecules expression.
The cells were analyzed by Multicolor Flow cytometry. […] The cells were analyzed with an LSR II flow cytometer (BD) and FlowJo software.
An ELISA assay (Biolegend) was used to measure the concentration of IL-12p70 protein in conditioned media from immature and mature BMDCs. This assay allowed for the detection of total IL-12p70 concentrations in the range of 15.6-1,000 pg/ml, and the results are expressed as pg/mL IL-12p70.

[2] = FAHFA hydrolysis assay (9-PAHSA to 9-HSA), liver lysate; conditions: liver lysate 1 mg/ml protein, 100 μM, 37° C., two hours
[3] = Serum 5-PAHSA after oral administration; format: in vivo, mouse; conditions: oral gavage
Method: FIG. 56 is a bar graph showing serum 5-PAHSA levels after oral administration of synthesized 5-PAHSA. 3 h after food removal, mice were gavaged with 30 mg/kg body weight (chow-fed) or 45 mg/kg body weight (HFD-fed) of 5-PAHSA. 5 h post gavage, blood was collected via tail vein and serum 5-PAHSA was analyzed by mass spectrometry. n=3 mice per group. Data are expressed as mean±s.e.m. *p<0.05 vs. vehicle treated on the same diet; and δp<0.05 vs. chow vehicle.

Row | hydrolysis of 9-PAHSA (9-HSA production) (purified CEL) | hydrolysis of 9-PAHSA to 9-HSA [2] | serum 5-PAHSA levels versus chow baseline ([3]; HFD-fed mice) | increase in serum 5-PAHSA levels ([3]; mice on chow (30 mg/kg) and HFD (45 mg/kg), 5 h post gavage) | SMILES | IL-12 production ([1]; LPS 100 ng/mL) | expression of MHCII and co-stimulatory molecules (CD40, CD80, CD86) ([1]; LPS-induced) | LPS-induced dendritic cell activation ([1]; dose response)
1 | substantial hydrolysis | Substantial 9-HSA production | – | – | CCCCCCCCCCCCCCCC(=O)OC(CCCCCCCCC)CCCCCCCC(=O)O (stereo not shown) [9-PAHSA, palmitoyl-9-hydroxystearic acid] | blocks IL-12 production | reducing expression of MHCII and co-stimulatory molecules | prevents LPS-induced dendritic cell activation in a dose dependent manner
2 | – | – | more than restored the levels | 3-5 fold | CCCCCCCCCCCCCCCC(=O)OC(CCCCCCCCCCCCC)CCCC(=O)O (stereo not shown) [5-PAHSA] | – | – | –
